Data taken from US20200165257A1, “INHIBITORS OF PHOSPHOINOSITIDE 3-KINASE AND HISTONE DEACETYLASE FOR TREATMENT OF CANCER” (THE UNITED STATES OF AMERICA, AS REPRESENTED BY THE …, priority 2017, published 2020).

What was measured:
Type in all cases: biochemical
[1] = molecular target: PI3Kδ (Homo sapiens, UniProt O00329); assay: PI3Kδ kinase assay (HTRF); conditions: for IC50: symbols ++ / +, read-out: PI3Kδ Inhibition Activity (IC50 class); for inhibition at 1 µM: symbols ** / *, read-out: PI3Kδ Inhibition Activity (% Inhibition class)
Protocol: (§1) The PIP3 product is detected by displacement of biotin-PIP3 from an energy transfer complex consisting of Europium labeled anti-GST monoclonal antibody, a GST-tagged pleckstrin homology (PH) domain, biotinylated PIP3 and Streptavidin-Allophycocyanin (APC). […] The PIP3 product formed by PI 3-Kinase(h) activity displaces biotin-PIP3 from the complex resulting in a loss of energy transfer, and thus, a decrease in signal.
(§2) First, the kinase reaction with PIP2 substrate is carried out in the presence of ATP, and the reaction is quenched with stop Solution, and then, finally detect by adding Detection Mixture followed by incubation.
(§3) HEPES 50 mM (pH7.0), NaN3 0.02%, BSA 0.01%, Orthovanadate 0.1 mM, 1% DMSO.
(§4) Detection buffer: HEPES 10 mM (pH7.0), BSA 0.02%, KF 0.16 M, EDTA 4 mM.
(§5) 10 μM PIP2 substrate (PI(4,5)P2)
(§6) 10 μM ATP under standard conditions
(§7) 1. Prepare substrate in freshly prepared Reaction Buffer.
(§8) 2. Deliver kinase into the substrate solution and gently mix.
(§9) 3. Deliver compounds in 100% DMSO into the kinase reaction mixture by Acoustic technology (Echo550; nanoliter range), incubate for 10 min at room temperature.
(§10) 4. Deliver ATP into the reaction mixture to initiate the reaction.
(§11) 5. Incubate for 30 min at 30° C.
(§12) 6. Quench the reaction with Stop Solution.
(§13) 7. Add Detection Mixture, and incubate for overnight.
(§14) The emission ratio is converted into μM PIP3 production based on PIP3 standard curves.
(§15) The nonlinear regression to obtain the standard curve and IC50 values are performed using Graphpad Prism software.

[2] = molecular target: T1, HDAC6 (Homo sapiens, UniProt Q9UBN7); assay: HDAC Fluorescent Activity Assay; conditions: for inhibition at 1 µM: symbols ** / *, read-out: HDAC6 Inhibition Activity (% Inhibition class); for IC50: symbols ++ / +, read-out: HDAC6 Inhibition Activity (IC50 class)
T1 sequence (Q9UBN7 1-1215): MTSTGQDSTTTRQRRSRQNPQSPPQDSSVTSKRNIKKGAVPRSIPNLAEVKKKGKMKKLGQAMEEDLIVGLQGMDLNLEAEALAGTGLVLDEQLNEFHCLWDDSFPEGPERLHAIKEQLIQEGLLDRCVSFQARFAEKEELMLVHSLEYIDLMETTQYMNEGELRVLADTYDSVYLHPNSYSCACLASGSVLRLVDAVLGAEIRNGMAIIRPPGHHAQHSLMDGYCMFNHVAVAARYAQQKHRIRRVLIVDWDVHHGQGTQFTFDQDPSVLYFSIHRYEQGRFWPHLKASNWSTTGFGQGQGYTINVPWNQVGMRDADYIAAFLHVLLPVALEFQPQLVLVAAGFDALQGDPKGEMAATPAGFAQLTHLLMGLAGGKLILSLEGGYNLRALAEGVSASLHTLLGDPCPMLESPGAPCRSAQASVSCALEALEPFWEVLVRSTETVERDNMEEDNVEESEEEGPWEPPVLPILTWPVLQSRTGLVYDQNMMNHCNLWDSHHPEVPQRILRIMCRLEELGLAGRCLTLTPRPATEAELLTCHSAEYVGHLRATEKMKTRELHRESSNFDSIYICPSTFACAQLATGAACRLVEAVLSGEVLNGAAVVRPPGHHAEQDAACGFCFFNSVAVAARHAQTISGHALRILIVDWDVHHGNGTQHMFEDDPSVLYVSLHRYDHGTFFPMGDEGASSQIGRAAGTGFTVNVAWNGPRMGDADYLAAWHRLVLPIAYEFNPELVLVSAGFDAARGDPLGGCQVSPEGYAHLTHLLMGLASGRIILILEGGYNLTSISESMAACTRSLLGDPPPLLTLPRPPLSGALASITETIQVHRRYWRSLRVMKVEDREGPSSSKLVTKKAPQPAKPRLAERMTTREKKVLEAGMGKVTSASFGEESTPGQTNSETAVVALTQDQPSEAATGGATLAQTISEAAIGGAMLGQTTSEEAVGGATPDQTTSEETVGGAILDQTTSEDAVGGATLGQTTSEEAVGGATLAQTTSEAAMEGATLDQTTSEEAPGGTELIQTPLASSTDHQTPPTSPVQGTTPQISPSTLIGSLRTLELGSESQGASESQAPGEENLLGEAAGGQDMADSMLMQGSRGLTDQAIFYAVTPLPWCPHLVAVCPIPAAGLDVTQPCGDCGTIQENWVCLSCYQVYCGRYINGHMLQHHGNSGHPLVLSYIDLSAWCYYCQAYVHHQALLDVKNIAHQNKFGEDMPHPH
Protocol: This protocol is to determine the IC50s or percentage of inhibition values of the test compound against HDACs.
The HDAC Fluorescent Activity Assay is based on the unique Fluorogenic Substrate and Developer combination. […] First, the Fluorogenic Substrate, which comprises an acetylated lysine side chain, is incubated with a purified HDAC enzyme. Deacetylation of the substrate sensitizes the substrate so that, in the second step, treatment with the Developer produces a fluorophore.
Testing compounds were dissolved in 100% DMSO to specific concentration. […]
1. Deliver 2× enzyme in wells of reaction plate except No Enzyme control wells. Add buffer in No En wells.
2. Deliver compounds in 100% DMSO into the enzyme mixture by Acoustic technology (Echo550; nanoliter range). Spin down and pre-incubation.
3. Deliver 2× Substrate Mixture (Fluorogenic HDAC Substrate and co-factor if applicable) in all reaction wells to initiate the reaction. Spin and shake.
4. Incubate for 1-2 hr at 30° C. with seal.
5. Add Developer with Trichostatin A (or TMP269) to stop the reaction and to generate fluorescent color.
6. Fluorescence was read (excitatory, 360; emission, 460) using the EnVision Multilabel
7. Take endpoint reading for analysis after the development reaches plateau.
The percentages of enzyme activity (relative to DMSO controls) and IC50 values were calculated using the GraphPad Prism 4 program based on a sigmoidal dose-response equation.

[3] = molecular target: PI3Kα (Homo sapiens, UniProt P42336); assay: PI3Kα kinase assay (HTRF)
Protocol: as §1, §2, §3, §4, §5, §6, §7, §8, §9, §10, §11, §12, §13, §14, §15

[4] = molecular target: PI3Kβ (Homo sapiens, UniProt P42338); assay: PI3Kβ kinase assay (HTRF)
Protocol: as §1, §2, §3, §4, §5, §6, §7, §8, §9, §10, §11, §12, §13, §14, §15

[5] = molecular target: PI3Kγ (Homo sapiens, UniProt P48736); assay: PI3Kγ kinase assay (HTRF)
Protocol: as §1, §2, §3, §4, §5, §6, §7, §8, §9, §10, §11, §12, §13, §14, §15

PI3Kα, sequence (P42336 whole entry): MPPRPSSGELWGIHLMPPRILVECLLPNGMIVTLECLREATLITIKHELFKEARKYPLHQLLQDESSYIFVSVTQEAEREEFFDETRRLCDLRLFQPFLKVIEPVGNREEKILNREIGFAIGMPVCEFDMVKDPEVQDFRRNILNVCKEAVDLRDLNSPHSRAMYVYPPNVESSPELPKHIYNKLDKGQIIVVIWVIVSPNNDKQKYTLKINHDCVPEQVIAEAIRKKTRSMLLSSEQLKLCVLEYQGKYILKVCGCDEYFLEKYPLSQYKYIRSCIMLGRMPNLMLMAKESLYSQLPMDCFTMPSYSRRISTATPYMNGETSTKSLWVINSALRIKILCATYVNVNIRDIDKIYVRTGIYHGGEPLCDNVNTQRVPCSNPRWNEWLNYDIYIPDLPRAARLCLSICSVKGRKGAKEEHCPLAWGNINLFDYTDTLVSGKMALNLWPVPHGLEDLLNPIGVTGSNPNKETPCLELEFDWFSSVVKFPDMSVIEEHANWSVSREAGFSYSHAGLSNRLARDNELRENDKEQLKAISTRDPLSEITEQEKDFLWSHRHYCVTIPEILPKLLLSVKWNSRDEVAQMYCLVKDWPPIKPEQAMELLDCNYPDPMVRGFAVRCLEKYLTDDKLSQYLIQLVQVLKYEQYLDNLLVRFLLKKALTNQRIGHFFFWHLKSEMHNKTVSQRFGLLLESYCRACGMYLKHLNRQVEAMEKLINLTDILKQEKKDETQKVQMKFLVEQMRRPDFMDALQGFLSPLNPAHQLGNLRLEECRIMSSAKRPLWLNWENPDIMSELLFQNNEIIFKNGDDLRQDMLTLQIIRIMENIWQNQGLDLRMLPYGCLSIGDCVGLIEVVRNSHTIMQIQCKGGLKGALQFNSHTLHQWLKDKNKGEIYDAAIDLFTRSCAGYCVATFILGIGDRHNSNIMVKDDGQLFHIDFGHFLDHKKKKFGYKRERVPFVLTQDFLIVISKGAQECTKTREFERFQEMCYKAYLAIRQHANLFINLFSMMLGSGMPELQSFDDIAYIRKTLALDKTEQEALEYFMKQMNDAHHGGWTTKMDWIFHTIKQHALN
PI3Kα, sequence (P27986 whole entry partner): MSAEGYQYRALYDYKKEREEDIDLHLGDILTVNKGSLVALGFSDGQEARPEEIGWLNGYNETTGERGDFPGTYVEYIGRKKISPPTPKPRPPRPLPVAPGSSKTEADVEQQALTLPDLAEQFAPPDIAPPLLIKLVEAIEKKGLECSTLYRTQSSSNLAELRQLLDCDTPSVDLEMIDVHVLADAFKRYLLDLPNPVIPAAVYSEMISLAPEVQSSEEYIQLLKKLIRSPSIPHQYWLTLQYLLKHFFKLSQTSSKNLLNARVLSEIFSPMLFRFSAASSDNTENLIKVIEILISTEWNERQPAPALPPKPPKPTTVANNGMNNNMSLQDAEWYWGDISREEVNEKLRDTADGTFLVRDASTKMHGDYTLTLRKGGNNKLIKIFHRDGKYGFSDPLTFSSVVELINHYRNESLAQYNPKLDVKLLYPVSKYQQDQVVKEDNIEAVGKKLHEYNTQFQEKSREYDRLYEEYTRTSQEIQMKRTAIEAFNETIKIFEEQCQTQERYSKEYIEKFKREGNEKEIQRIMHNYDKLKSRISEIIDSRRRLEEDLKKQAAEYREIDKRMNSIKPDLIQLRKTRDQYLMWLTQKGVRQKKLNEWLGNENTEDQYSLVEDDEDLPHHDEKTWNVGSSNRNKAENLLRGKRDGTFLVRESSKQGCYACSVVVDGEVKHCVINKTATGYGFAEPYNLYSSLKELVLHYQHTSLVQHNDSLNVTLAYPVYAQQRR
PI3Kγ, sequence (P48736 whole entry): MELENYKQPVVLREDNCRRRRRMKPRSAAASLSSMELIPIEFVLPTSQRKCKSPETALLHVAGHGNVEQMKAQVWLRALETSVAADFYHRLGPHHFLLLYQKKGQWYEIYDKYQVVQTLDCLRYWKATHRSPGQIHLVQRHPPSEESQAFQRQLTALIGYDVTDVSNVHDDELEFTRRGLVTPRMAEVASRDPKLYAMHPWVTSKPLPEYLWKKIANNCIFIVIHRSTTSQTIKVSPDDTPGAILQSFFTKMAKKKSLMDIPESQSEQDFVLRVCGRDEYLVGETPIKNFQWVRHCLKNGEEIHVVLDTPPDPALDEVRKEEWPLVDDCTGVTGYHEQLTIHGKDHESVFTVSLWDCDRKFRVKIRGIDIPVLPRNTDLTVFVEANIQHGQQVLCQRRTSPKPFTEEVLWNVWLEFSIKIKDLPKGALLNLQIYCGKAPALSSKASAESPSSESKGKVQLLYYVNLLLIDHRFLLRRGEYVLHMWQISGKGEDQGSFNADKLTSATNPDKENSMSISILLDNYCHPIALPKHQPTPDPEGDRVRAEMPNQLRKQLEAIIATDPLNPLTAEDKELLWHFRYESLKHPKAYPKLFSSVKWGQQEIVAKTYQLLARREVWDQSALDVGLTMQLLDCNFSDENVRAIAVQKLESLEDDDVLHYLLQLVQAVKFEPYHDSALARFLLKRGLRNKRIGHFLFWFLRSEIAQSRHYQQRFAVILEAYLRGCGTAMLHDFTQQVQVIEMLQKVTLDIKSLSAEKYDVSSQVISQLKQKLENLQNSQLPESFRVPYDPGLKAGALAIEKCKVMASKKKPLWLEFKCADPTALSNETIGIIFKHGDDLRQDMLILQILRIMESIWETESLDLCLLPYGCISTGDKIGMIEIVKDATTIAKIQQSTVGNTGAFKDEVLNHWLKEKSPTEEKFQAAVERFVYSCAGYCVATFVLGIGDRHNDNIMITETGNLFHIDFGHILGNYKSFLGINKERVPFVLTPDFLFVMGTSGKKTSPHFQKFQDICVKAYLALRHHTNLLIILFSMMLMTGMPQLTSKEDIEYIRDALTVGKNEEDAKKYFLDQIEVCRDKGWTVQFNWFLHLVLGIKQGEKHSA
PI3Kβ, sequence (P42338 whole entry): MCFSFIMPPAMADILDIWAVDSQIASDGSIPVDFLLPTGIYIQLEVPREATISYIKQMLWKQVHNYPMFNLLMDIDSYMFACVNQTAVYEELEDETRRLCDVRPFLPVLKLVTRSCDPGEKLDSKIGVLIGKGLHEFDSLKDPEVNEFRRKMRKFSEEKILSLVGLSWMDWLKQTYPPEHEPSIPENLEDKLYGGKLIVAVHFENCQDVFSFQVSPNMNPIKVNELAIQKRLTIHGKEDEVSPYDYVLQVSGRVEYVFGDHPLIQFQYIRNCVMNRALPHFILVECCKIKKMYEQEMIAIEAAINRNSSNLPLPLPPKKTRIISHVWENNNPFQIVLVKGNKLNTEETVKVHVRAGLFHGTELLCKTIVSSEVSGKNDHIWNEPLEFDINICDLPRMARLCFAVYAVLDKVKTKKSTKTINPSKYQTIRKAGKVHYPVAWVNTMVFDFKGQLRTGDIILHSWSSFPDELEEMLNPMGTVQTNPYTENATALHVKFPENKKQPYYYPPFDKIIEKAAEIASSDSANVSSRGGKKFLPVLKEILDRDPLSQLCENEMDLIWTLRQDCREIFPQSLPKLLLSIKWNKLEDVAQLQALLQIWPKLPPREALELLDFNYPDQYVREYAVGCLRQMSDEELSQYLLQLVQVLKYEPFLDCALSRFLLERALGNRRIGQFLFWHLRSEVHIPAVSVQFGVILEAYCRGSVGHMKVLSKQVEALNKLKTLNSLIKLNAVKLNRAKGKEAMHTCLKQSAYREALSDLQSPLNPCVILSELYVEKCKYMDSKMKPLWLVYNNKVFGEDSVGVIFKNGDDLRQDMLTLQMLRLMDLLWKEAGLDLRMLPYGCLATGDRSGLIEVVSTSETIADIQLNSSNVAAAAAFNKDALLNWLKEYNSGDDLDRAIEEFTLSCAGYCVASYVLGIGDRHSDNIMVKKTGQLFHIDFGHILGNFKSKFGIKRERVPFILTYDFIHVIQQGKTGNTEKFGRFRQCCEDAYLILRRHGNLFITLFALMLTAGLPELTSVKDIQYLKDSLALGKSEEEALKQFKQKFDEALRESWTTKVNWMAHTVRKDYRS
PI3Kβ, sequence (P27986 whole entry partner): as the sequence (P27986 whole entry partner) above
PI3Kδ, sequence (O00329 whole entry): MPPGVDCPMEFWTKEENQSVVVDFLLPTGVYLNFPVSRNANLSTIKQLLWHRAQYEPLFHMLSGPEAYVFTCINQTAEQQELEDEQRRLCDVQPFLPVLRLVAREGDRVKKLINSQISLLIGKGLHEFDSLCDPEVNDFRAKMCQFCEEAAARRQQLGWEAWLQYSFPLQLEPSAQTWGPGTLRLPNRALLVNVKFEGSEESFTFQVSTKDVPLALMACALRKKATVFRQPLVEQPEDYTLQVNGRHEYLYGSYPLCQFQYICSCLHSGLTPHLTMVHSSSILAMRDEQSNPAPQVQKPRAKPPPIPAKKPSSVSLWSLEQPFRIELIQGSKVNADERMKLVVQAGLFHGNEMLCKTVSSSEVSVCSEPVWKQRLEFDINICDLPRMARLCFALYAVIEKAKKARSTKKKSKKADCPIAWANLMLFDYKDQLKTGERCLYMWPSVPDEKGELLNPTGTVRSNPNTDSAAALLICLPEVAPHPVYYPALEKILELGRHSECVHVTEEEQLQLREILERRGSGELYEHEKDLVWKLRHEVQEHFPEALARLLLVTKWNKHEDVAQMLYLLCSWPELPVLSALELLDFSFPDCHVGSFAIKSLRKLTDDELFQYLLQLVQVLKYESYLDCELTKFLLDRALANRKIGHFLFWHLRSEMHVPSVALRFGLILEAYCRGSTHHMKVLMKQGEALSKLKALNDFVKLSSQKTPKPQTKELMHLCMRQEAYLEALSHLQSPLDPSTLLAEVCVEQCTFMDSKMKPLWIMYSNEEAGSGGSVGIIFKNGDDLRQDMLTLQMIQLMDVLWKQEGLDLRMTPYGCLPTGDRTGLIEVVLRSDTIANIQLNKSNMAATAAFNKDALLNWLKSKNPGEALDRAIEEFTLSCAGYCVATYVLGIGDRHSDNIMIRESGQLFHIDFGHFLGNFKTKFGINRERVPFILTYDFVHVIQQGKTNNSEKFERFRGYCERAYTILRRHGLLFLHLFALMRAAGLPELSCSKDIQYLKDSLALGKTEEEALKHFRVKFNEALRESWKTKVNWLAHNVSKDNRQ
PI3Kδ, sequence (P27986 whole entry partner): as the sequence (P27986 whole entry partner) above

| Compound | IC50 [1] [nM] | inhibition at 1 µM [2] [%] | IC50 [2] [nM] | inhibition at 1 µM [1] [%] | inhibition at 1 µM [3] [%] | inhibition at 1 µM [4] [%] | inhibition at 1 µM [5] [%] |
| --- | --- | --- | --- | --- | --- | --- | --- |
| CC[C@H](Nc1nc(N)nc(C)c1C#N)c1nc2cccc(C#CCCCC(=O)NO)c2c(=O)n1-c1ccccc1 [LVI, (S)-6-(2-(1-((2-amino-5-cyano-6-methylpyrimidin-4-yl)amino)propyl)-4-oxo-3-phenyl-3,4-dihydroquinazolin-5-yl)-N-hydroxyhex-5-ynamide] | < 100 | > 90 | – | – | – | – | – |
| CC[C@H](Nc1ncnc2[nH]cnc12)c1nc2cccc(CC(=O)c3ccc(C(=O)Nc4ccccc4N)cc3)c2c(=O)n1-c1ccccc1 [XXIII, (S)-4-(2-(2-(1-((9H-purin-6-yl)amino)propyl)-4-oxo-3-phenyl-3,4-dihydroquinazolin-5-yl)acetyl)-N-(2-aminophenyl)benzamide] | – | < 90 | – | > 90 | < 85 | < 85 | < 85 |
| O=C(NO)c1ccc(CNc2cccc3nc(C4CC4)n(-c4ccccc4)c(=O)c23)cc1 [LXI, 4-(((2-cyclopropyl-4-oxo-3-phenyl-3,4-dihydroquinazolin-5-yl)amino)methyl)-N-hydroxybenzamide] | – | – | < 100 | – | – | – | – |
| CC[C@H](Nc1ncnc2[nH]cnc12)c1nc(N2CCN(c3nc(C(=O)NO)co3)CC2)c2ccccc2n1 [XXXIII, (S)-2-(4-(2-(1-((9H-purin-6-yl)amino)propyl)quinazolin-4-yl)piperazin-1-yl)-N-hydroxyoxazole-4-carboxamide] | – | > 90 | – | < 90 | < 85 | < 85 | < 85 |
| CC[C@H](Nc1ncnc2[nH]cnc12)c1nc(-c2ccc(C(=O)NO)cc2)c2ccccc2n1 [XXXIV, (S)-4-(2-(1-((9H-purin-6-yl)amino)propyl)quinazolin-4-yl)-N-hydroxybenzamide] | – | > 90 | – | < 90 | < 85 | < 85 | < 85 |
| CC[C@H](Nc1ncnc2[nH]cnc12)c1nc2cccc(CNC(=O)c3cccc(B(O)O)c3)c2c(=O)n1-c1ccccc1 [XXV, (S)-(3-(((2-(1-((9H-purin-6-yl)amino)propyl)-4-oxo-3-phenyl-3,4-dihydroquinazolin-5-yl)methyl)carbamoyl)phenyl)boronic acid] | – | < 90 | – | > 90 | < 85 | < 85 | < 85 |
| CC[C@H](Nc1ncnc2[nH]cnc12)c1nc2cccc(NCc3ccc(C(=O)N(C)O)cc3)c2c(=O)n1-c1ccccc1 [XXVII, (S)-4-(((2-(1-((9H-purin-6-yl)amino)propyl)-4-oxo-3-phenyl-3,4-dihydroquinazolin-5-yl)amino)methyl)-N-hydroxy-N-methylbenzamide] | – | – | > 100 | – | – | – | – |
| O=C(CCCCNc1cccc2nc(C3CC3)n(-c3ccccc3)c(=O)c12)NO [LXIII, 5-((2-cyclopropyl-4-oxo-3-phenyl-3,4-dihydroquinazolin-5-yl)amino)-N-hydroxypentanamide] | – | – | > 100 | – | – | – | – |
| CC[C@H](Nc1ncnc2[nH]cnc12)c1nc(NCCCCCC(=O)NO)c2ccccc2n1 [XXXI, (S)-6-((2-(1-((9H-purin-6-yl)amino)propyl)quinazolin-4-yl)amino)-N-hydroxyhexanamide] | > 100 | – | < 100 | – | – | – | – |
| CC[C@H](Nc1nc(N)nc(C)c1C#N)c1nc2cccc(N(C)Cc3ccc(C(=O)NO)cc3)c2c(=O)n1-c1ccccc1 [LI, (S)-4-(((2-(1-((2-amino-5-cyano-6-methylpyrimidin-4-yl)amino)propyl)-4-oxo-3-phenyl-3,4-dihydroquinazolin-5-yl)(methyl)amino)methyl)-N-hydroxybenzamide] | < 100 | – | < 100 | – | – | – | – |

Results, then the molecule that gave them:

| IC50 [1] [nM] | inhibition at 1 µM [2] [%] | IC50 [2] [nM] | inhibition at 1 µM [1] [%] | inhibition at 1 µM [3] [%] | inhibition at 1 µM [4] [%] | inhibition at 1 µM [5] [%] | Compound |
| --- | --- | --- | --- | --- | --- | --- | --- |
| – | – | > 100 | – | – | – | – | Cc1nc2cccc(NCCCCC(=O)NO)c2c(=O)n1-c1ccccc1 [LXII, N-hydroxy-5-((2-methyl-4-oxo-3-phenyl-3,4-dihydroquinazolin-5-yl)amino)pentanamide] |
| – | < 90 | – | > 90 | < 85 | < 85 | < 85 | CC[C@H](Nc1ncnc2[nH]cnc12)c1nc2cccc(-c3cnc(C(=O)NO)nc3)c2c(=O)n1-c1ccccc1 [XXII, (S)-5-(2-(1-((9H-purin-6-yl)amino)propyl)-4-oxo-3-phenyl-3,4-dihydroquinazolin-5-yl)-N-hydroxypyrimidine-2-carboxamide] |
| < 100 | – | < 100 | – | – | – | – | CC[C@H](Nc1nc(N)nc(C)c1C#N)c1nc2cccc(N3CCC(CCC(=O)NO)CC3)c2c(=O)n1-c1ccccc1 [Compound L, (S)-3-(1-(2-(1-((2-amino-5-cyano-6-methylpyrimidin-4-yl)amino)propyl)-4-oxo-3-phenyl-3,4-dihydroquinazolin-5-yl)piperidin-4-yl)-N-hydroxypropanamide] |
| > 100 | – | < 100 | – | – | – | – | CC[C@H](Nc1ncnc(N)c1C(N)=O)c1nc2cccc(NCc3ccc(C(=O)NO)cn3)c2c(=O)n1-c1ccccc1 [LVII, (S)-4-amino-6-((1-(5-(((5-(hydroxycarbamoyl)pyridin-2-yl)methyl)amino)-4-oxo-3-phenyl-3,4-dihydroquinazolin-2-yl)propyl)amino)pyrimidine-5-carboxamide] |
| – | < 90 | – | < 90 | < 85 | < 85 | < 85 | CC[C@H](Nc1ncnc2[nH]cnc12)c1nc(N2CCN(c3nc(C(=O)NO)cs3)CC2)c2ccccc2n1 [XXXII, (S)-2-(4-(2-(1-((9H-purin-6-yl)amino)propyl)quinazolin-4-yl)piperazin-1-yl)-N-hydroxythiazole-4-carboxamide] |
